From US8183252B2, “Heterocyclic aspartyl protease inhibitors” (Schering Corporation, priority 2007, dated 2012) come the findings set out here.

pKi: −log10 of the molar value. Where two headings read alike, the source gives them in different places.

The target of the assay is T1, human BACE1 (sproBACE1) (Homo sapiens, UniProt P56817).
T1 construct: sBACE1, corresponding to amino acids 1-454; made in house; host or cells: Sf9 insect cells (baculovirus), secreted into the medium
The assay can be described thus: BACE-1 Peptide Hydrolysis Assay (HTRF). The format is biochemical. The procedure, abridged:
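Secreted sBACE1-myc/His from baculovirus-infected sf9 cells, purified on Q-sepharose then Ni-NTA. Substrate-initiated reactions ran 3 hr at 30° C., then were stopped with KF buffer (pH 8.0) containing SA-XL665 for HTRF read-out. EC50 was fitted by sigmoidal dose-response to percent change in ratio.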
(Time-resolved FRET reads energy transfer from a long-lived donor to a nearby acceptor.)

T1 sequence (P56817 22-454): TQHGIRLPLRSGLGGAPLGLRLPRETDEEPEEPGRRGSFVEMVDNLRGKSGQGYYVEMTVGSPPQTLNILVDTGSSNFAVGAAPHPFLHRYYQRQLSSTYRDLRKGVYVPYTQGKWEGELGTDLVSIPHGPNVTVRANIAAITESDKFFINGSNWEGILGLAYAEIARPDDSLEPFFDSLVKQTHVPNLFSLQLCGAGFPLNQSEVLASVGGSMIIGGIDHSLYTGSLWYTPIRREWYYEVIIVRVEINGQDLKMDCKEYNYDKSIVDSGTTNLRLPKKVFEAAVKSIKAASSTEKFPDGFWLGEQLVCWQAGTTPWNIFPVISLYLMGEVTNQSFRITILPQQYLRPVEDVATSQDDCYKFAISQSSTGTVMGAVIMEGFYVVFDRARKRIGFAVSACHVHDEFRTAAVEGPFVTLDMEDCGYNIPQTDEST

As for `CCCCS(=O)(=O)Nc1cccc(CN2C(=N)NC(c3ccccc3)(c3ccccc3)C2=O)c1`, the pKi (as a rule, −log10 of the Ki, conventionally taken in molar units) (read-out: BACE-1 Ki) is greater than 5.30. Same read-out and setting: then `COCC1CCCN1C(=O)c1cncc(CN2C(=N)NC(c3cccc(Br)c3)(C3CC3)C2=O)c1` (stereo not shown), with greater than 5.30; and `CN1C(=N)N[C@](C)(c2csc(-c3ccc(F)c(C#N)c3)c2)CC1=O`, with greater than 5.30. As to `CN1C(=N)NC(c2ccccc2)(c2cc(-c3cccnc3)cs2)C1=O` (stereo not shown), the pKi (read-out: BACE-1 Ki) was greater than 5.30.

As for `CN1C(=N)NC(c2ccccc2)(c2cc(-c3cncnc3)cs2)C1=O` (stereo not shown), the pKi (read-out: BACE-1 Ki) is greater than 5.30. The same measure, in the same setting: the same measure for `CN1C(=N)N[C@](CCc2ccccc2)(C[C@H]2CCC[C@H](Nc3cccnc3)C2)C1=O`: greater than 5.30; for `Cn1nccc1CN1C(=N)NC(c2ccccc2)(c2ccccc2)C1=O`: greater than 5.30. Same read-out and setting: then `N=C1NC(c2ccccc2)(c2ccccc2)C(=O)N1Cc1cccnc1`, with greater than 5.30; and `N=C1NC(c2ccccc2)(c2ccccc2)C(=O)N1CC1CCN(c2ccc3ccccc3n2)CC1`, with greater than 5.30. With `CN1C(=N)N[C@](C)(c2cc(-c3cc(Cl)cc(C#N)c3)cs2)CC1=O`, the pKi (read-out: BACE-1 Ki) is greater than 5.30.

With `CN1C(=N)N[C@](C)(c2ncc(-c3cc(F)cc(C#N)c3)s2)CC1=O`, where the note is “read-out: BACE-1 Ki”, the pKi was greater than 5.30. On the same count and under the same terms, then `CN1C(=N)NC(c2csc(-c3cccc(C#N)c3)c2)(C2CC2)C1=O` (stereo not shown), with greater than 5.30; and `CN1C(=N)N[C@](C)(c2cc(-c3cccc(C#N)c3)cs2)[C@@H](c2csc3ccccc23)C1=O`, with greater than 5.30; and `Cc1ccc(N2CCC([C@H]3C(=O)N(C)C(=N)N[C@]3(C)c3cc(-c4cccc(C#N)c4)cs3)CC2)cc1`, with greater than 5.30. Same read-out and setting: the same measure for `Cc1c(-c2cccc(C#N)c2)csc1[C@]1(C)CC(=O)N(C)C(=N)N1`: greater than 5.30. Take `CN1C(=N)N[C@](C)(c2cc(-c3cccc(C#N)c3)c(C3=CCN(c4ccccc4)CC3)s2)CC1=O`: under “read-out: BACE-1 Ki”, the pKi was greater than 5.30. As to `Cc1cc([C@]2(C)CC(=O)N(C)C(=N)N2)sc1-c1cccc(C#N)c1`, the pKi (read-out: BACE-1 Ki) was greater than 5.30. As for `COc1cc(C#N)cc(-c2cc([C@@]3(C)NC(=N)N(C)C(=O)[C@@H]3C)sc2C)c1`, the pKi (read-out: BACE-1 Ki) is greater than 5.30. On the same count and under the same terms, then `CC1(c2cccc(-c3cccc(Cl)c3)c2)NC(=N)N(CC2CCN(S(=O)(=O)c3ccccc3)C2)C1=O` (stereo not shown), with greater than 5.30. Same read-out and setting: then `CC(=O)N1CCC(CN2C(=N)NC(C)(c3cccc(-c4cccc(C(=O)NCc5ccco5)c4)c3)C2=O)CC1` (stereo not shown), with greater than 5.30; and `CN1C(=N)N[C@@](c2cccc(-c3ccc(F)c(C#N)c3)c2)(C2CC2)C1=O`, with greater than 5.30. As for `CN1C(=N)N[C@](C)(c2scc(C#N)c2F)CC1=O`, the pKi (read-out: BACE-1 Ki) is greater than 5.30. The same measure, in the same setting: the same measure for `N=C1NC(c2ccccc2)(c2ccccc2)C(=O)N1Cc1cccc(C(=O)N2CCOCC2)c1`: greater than 5.30; for `CN(C)C(=O)N1CCC([C@H]2C(=O)N(C)C(=N)N[C@]2(C)c2cc(-c3cccc(C#N)c3)cs2)CC1`: greater than 5.30. On the same count and under the same terms, the same measure for `Cc1csc(-c2csc(C3(C4CC4)NC(=N)N(C)C3=O)c2)c1` (stereo not shown): greater than 5.30; for `CCn1nccc1Nc1cccc(C2(c3ccccc3)NC(=N)N(C)C2=O)c1` (stereo not shown): greater than 5.30.

For the molecule `CN1C(=N)NC(c2cc(-c3cncc(Cl)c3)cs2)(C2CC2)C1=O` (stereo not shown), the pKi (read-out: BACE-1 Ki) was greater than 5.30. Same read-out and setting: the same measure for `CN1C(=N)N[C@](C)(c2cc(-c3ccc(F)c(C#N)c3)c(F)s2)[C@@H](C2CC2)C1=O`: greater than 5.30. Still for that read-out and setting: the same measure for `Cc1ccc(-c2csc([C@]3(C)CC(=O)N(C)C(=N)N3)c2)cc1C#N`: greater than 5.30. With `CN1C(=N)N[C@](C)(c2cc(-c3cc(C#N)cc(C#N)c3)nn2C)CC1=O`, the pKi (read-out: BACE-1 Ki) is greater than 5.30.

Turning to `C[C@H]1C(=O)N(C)C(=N)N[C@]1(C)c1cc(-c2cc(C#N)cc(C#N)c2)cs1`, under “read-out: BACE-1 Ki”, the pKi was greater than 5.30. On the same count and under the same terms, the same measure for `CN1C(=N)N[C@](C)(c2cnc[nH]2)[C@@H](c2cccc(C(C)(F)F)c2)C1=O`: greater than 5.30; for `CN1C(=N)N[C@](C)(c2ccc(C#N)s2)[C@@H](c2ccc(C(C)(F)F)cc2)C1=O`: greater than 5.30. On the same count and under the same terms, the same measure for `CSc1cccc(-c2cccc([C@@]3(C4CC4)NC(=N)N(C)C3=O)c2)c1`: greater than 5.30; for `CN1C(=N)N[C@](CCC2CCCCC2)(C[C@H]2CCC[C@@H](NCCc3ccccc3)C2)C1=O`: greater than 5.30. Same read-out and setting: then `CN1C(=N)N[C@@](c2cccc(-c3cc(Br)ccn3)c2)(C2CC2)C1=O`, with greater than 5.30; and `CN1C(=N)N[C@](CCc2ccccc2)(C[C@H]2CCC[C@@H](NC3CCCCC3)C2)C1=O`, with greater than 5.30. As for `CN1C(=N)N[C@@](C[C@H]2CCC[C@@H](Nc3ccc4ccccc4n3)C2)(C2CC2)C1=O`, the pKi (read-out: BACE-1 Ki) was greater than 5.30. For the molecule `CN1C(=N)N[C@@](CCC2CCCCC2)(C[C@H]2CCC[C@@H](Nc3cnc4cc(Cl)ccc4n3)C2)C1=O`, the pKi (read-out: BACE-1 Ki) was greater than 5.30. For the molecule `Cc1nn(C)c2sc([C@]3(C)CC(=O)N(C)C(=N)N3)cc12`, where the note is “read-out: BACE-1 Ki”, the pKi was greater than 5.30. The same measure, in the same setting: then `CN1C(=N)N[C@](C)(c2ccc(F)cc2F)[C@@H](C2CCN(c3ccc(F)cc3)CC2)C1=O`, with greater than 5.30; and `CN1C(=N)N[C@](C)(c2ccc(F)cc2F)CC1=O`, with greater than 5.30; and `CN1C(=N)N[C@](C)(c2ccc3c(Br)n[nH]c3c2)CC1=O`, with greater than 5.30.

Take `CN1C(=N)N[C@](C)(c2ccc3scc(CCC4CC4)c3c2)CC1=O`: the pKi (read-out: BACE-1 Ki) was greater than 5.30. Still for that read-out and setting: then `CN1C(=N)N[C@](C)(c2cc(-c3cccc(Br)c3)nn2C)C(C)(C)C1=O`, with greater than 5.30; and `CN1C(=N)N[C@](C)(c2cc(-c3cccc(Br)c3)ns2)CC1=O`, with greater than 5.30.

Turning to `CN1C(=N)N[C@](C)(c2cc(Br)c(-c3cncc(Br)c3)s2)CC1=O`, the pKi (read-out: BACE-1 Ki) is greater than 5.30. Turning to `CN1C(=N)N[C@](C)(c2cc(-c3cccc(Cl)c3)ccn2)CC1=O`, the pKi (read-out: BACE-1 Ki) was greater than 5.30.

Consider `CCOc1cc(F)cc(-c2csc([C@]3(C)CC(=O)N(C)C(=N)N3)c2)c1`, for which the pKi (read-out: BACE-1 Ki) was greater than 5.30.

As to `CN1C(=N)N[C@](C)(c2cc(-c3cccc(F)c3)c3sccc3c2)CC1=O`, where the note is “read-out: BACE-1 Ki”, the pKi is greater than 5.30.

For the molecule `CN1C(=N)N[C@](C)(c2cc(-c3ccc(F)nc3)c3sccc3c2)CC1=O`, the pKi (read-out: BACE-1 Ki) was greater than 5.30.

For `N=C1NC(c2ccccc2)(c2ccccc2)C(=O)N1Cc1cccc(NC(=O)C2CCCC2)c1`, where the note is “read-out: BACE-1 Ki”, the pKi was greater than 5.30.

For the molecule `CN1C(=N)N[C@](CCc2ccccc2)(C[C@H]2CCC[C@@H](NC(=O)c3ccncc3)C2)C1=O`, under “read-out: BACE-1 Ki”, the pKi is greater than 5.30.

In the case of `CN1C(=N)N[C@](CCC2CCCCC2)(C[C@H]2CCC[C@@H](NS(=O)(=O)c3ccccc3)C2)C1=O`, the negative logarithm of the Ki (pKi) (read-out: BACE-1 Ki) was greater than 5.30.

Consider `CN1C(=N)N[C@](CCC2CCCCC2)(C[C@H]2CCC[C@@H](NC(=O)c3ccnnc3)C2)C1=O`, for which the pKi (read-out: BACE-1 Ki) was greater than 5.30. Same read-out and setting: the same measure for `CC(=O)N1CCC[C@H](CN2C(=N)NC(c3ccccc3)(c3ccccc3)C2=O)C1`: greater than 5.30; for `N=C1NC(c2ccccc2)(c2ccccc2)C(=O)N1CC1CCN(C(=O)CCN)CC1`: greater than 5.30. For the molecule `N=C1NC(c2ccccc2)(c2ccccc2)C(=O)N1CC1CCN(C(=O)CN)CC1`, the pKi (read-out: BACE-1 Ki) is greater than 5.30. On the same count and under the same terms, then `N=C1NC(c2ccccc2)(c2ccccc2)C(=O)N1C[C@H]1CCCN(S(=O)(=O)C2CC2)C1`, with greater than 5.30. On the same count and under the same terms, the same measure for `CCCC(=O)N1CCC[C@H](CN2C(=N)NC(c3ccccc3)(c3ccccc3)C2=O)C1`: greater than 5.30; for `Cc1c(-c2cccc(OC(F)(F)F)c2)csc1[C@]1(C)CC(=O)N(C)C(=N)N1`: greater than 5.30; for `CN1C(=N)N[C@](C)(c2cc(-c3cccnc3)cs2)CC1=O`: greater than 5.30. As to `CN1C(=N)N[C@](C)(c2nc(-c3cccnc3)cs2)CC1=O`, for the setting “read-out: BACE-1 Ki”, the pKi was greater than 5.30. On the same count and under the same terms, the same measure for `CN1C(=N)N[C@](C)(c2cc(-c3cccc(OC(F)(F)F)c3)ccn2)CC1=O`: greater than 5.30; for `CN1C(=N)N[C@](C)(c2cc(-c3ccncc3)c3sccc3c2)CC1=O`: greater than 5.30. Still for that read-out and setting: the same measure for `CN1C(=N)NC(C)(c2cc(-c3cccc(C#N)c3)cs2)C(CC#N)C1=O` (mixture of isomers): greater than 5.30. In turn, `CCn1nccc1Nc1cccc(C2(C)NC(=N)N(CC3CCN(C(C)=O)CC3)C2=O)c1` (racemic) had a pKi greater than 5.30. In the case of `CN1C(=N)NC(c2ccccc2)(c2cccc(NCc3ccccc3)c2)C1=O` (racemic), the pKi (read-out: BACE-1 Ki) was greater than 5.30. On the same count and under the same terms, the same measure for `COc1cccc(-c2cccc(C3(C)NC(=N)N(Cc4cccc(N5CCCCS5(=O)=O)c4)C3=O)c2)c1` (racemic): greater than 5.30; for `CN1C(=N)NC(c2ccccc2)(c2cccc(NS(=O)(=O)c3cccc(C#N)c3)c2)C1=O` (racemic): greater than 5.30. The molecule `CS(=O)(=O)N1CCCC(CCN2C(=N)NC(c3ccccc3)(c3ccccc3)C2=O)C1` (racemic) showed a pKi greater than 5.30. Turning to `CN1C(=N)NC(C)(c2cccc(-c3cncc(C#N)c3)c2)C1=O` (racemic), the negative-log Ki (pKi) (read-out: BACE-1 Ki) was greater than 5.30.

Regarding `CN1C(=N)NC(c2ccccc2)(c2cccc(-c3nccnc3Cl)c2)C1=O` (racemic), the pKi (read-out: BACE-1 Ki) was greater than 5.30. As to `CN1C(=N)NC(c2ccccc2)(c2cccc(-c3cc(Br)cc(OC(F)(F)F)c3)c2)C1=O` (racemic), where the note is “read-out: BACE-1 Ki”, the pKi is greater than 5.30. Same read-out and setting: the same measure for `COc1cccc(-c2cc(F)cc(C3(c4ccccc4)NC(=N)N(C)C3=O)c2)c1` (racemic): greater than 5.30; for `CCN(CCc1cccc(C2(c3ccccc3)NC(=N)N(C)C2=O)c1)S(C)(=O)=O` (racemic): greater than 5.30; for `CN1C(=N)NC(c2ccccc2)(c2cccc(NC(=O)CC3CC3)c2)C1=O` (racemic): greater than 5.30. Regarding `CN1C(=N)NC(c2ccccc2)(c2cccc(NS(C)(=O)=O)c2)C1=O` (racemic), where the note is “read-out: BACE-1 Ki”, the pKi is greater than 5.30. Still for that read-out and setting: the same measure for `CN1C(=N)NC(c2ccccc2)(c2cccc(NS(=O)(=O)c3cccs3)c2)C1=O` (racemic): greater than 5.30; for `CN1C(=N)NC(c2ccccc2)(c2cccc(NS(=O)(=O)c3ccccc3)c2)C1=O` (racemic): greater than 5.30; for `CN1C(=N)NC(c2ccccc2)(c2cccc(NC(=O)c3ccccc3)c2)C1=O` (racemic): greater than 5.30. Regarding `CN1C(=N)NC(c2ccccc2)(c2cccc(NC(=O)c3ccoc3)c2)C1=O` (racemic), the pKi (read-out: BACE-1 Ki) is greater than 5.30.
